Assay [1] deals with 4-aminobutyrate aminotransferase, mitochondrial (Sus scrofa, UniProt P80147). Kind of assay: Apparent dissociation constants for inactivation of Gamma-amino-N-butyrate transaminase.
Assay [2] concerns the target 4-aminobutyrate aminotransferase, mitochondrial (Sus scrofa) (UniProt P80147). Kind of assay: Rate constants for inactivation at infinite concentration for inactivation of Gamma-amino-N-butyrate transaminase.

Sequence of 4-aminobutyrate aminotransferase, mitochondrial (Sus scrofa) (P80147 whole entry): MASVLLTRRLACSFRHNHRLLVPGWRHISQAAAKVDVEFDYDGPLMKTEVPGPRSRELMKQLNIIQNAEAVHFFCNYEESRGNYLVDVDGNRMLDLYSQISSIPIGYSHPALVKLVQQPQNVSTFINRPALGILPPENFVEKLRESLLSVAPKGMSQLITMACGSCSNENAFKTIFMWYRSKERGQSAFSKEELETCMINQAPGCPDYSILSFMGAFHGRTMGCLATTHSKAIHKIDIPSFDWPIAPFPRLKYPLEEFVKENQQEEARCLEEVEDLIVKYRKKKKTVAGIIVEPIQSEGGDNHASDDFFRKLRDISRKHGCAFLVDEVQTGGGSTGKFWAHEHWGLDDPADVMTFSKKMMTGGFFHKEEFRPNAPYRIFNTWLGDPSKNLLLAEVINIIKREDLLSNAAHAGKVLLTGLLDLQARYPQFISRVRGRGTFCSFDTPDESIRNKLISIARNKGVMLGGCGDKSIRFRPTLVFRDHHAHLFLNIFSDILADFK
Sequence of 4-aminobutyrate aminotransferase, mitochondrial (P80147 whole entry): as above

For the compound `C=C[C@](C)(N)C(=O)O`, in assay [1], the Ki was 12.8 mM. The K inact in assay [2] was determined as 8.5e-05 min⁻¹.

Consider `N[C@@H](COS(=O)(=O)O)C(=O)O`, for which the Ki in assay [1] is 2.4 mM. In assay [2], this compound displayed a K inact of 0.0055 min⁻¹.

In the case of `C[C@](N)(CCl)C(=O)O`, in assay [1], the Ki was 6.5 mM. In assay [2], this compound showed a K inact of 0.00093 min⁻¹.

Consider `C[C@](N)(CF)C(=O)O`, for which, in assay [1], the Ki was found to be 6.8 mM. This compound also showed a K inact in assay [2] of 0.00059 min⁻¹.

On to `C[C@](N)(COP(=O)(O)O)C(=O)O`, for which, in assay [1], the Ki was 5.7 mM. In assay [2], the K inact came to 0.0014 min⁻¹.

These data come from ChEMBL document CHEMBL1126360, “-Amino acid analogues as mechanism-based inactivators of -aminobutyric acid aminotransferase” (Bioorg Med Chem Lett, 1992).
